Assay results taken from patent US10780174B2, “Lipid-linked prodrugs” (The University of British Columbia, priority 2015, dated 2020).

Tests used:
[1] = tested on: OVCAR3 cells; test: In vitro growth inhibition by LD-DTX prodrugs, cell viability assay; assay type: cell-based; details: for IC50: Homo sapiens, OVCAR-3, 48 h, Ovcar3 cells
Method: OVCAR3 cells were obtained from ATCC (Manassas, Va.). Cells were seeded at 12,000 cells per well on 96-well plates and treated with free docetaxel, prodrugs, lipid nanoparticle formulations with or without prodrugs at 0 to 15 μM of docetaxel for 48 h. Cell viability was determined by a colorimetric assay, based on the tetrazolium salt MIT (3-(4,5-dimethylthiazol-2-yl)-2,5-diphenyltetrazolium bromide), as described previously [Mossman 1983].

[2] = In vitro degradation of lipid-linked prodrugs in LNP, mouse plasma; assay type: in vitro ADME; details: LNP, 1 h, 37° C., mouse plasma
Method: (§1) Quantitation of prodrugs by HPLC: LD-DEX/DTX were quantified by ultra high-pressure liquid chromatography (UHPLC) using a Waters Acquity™ UPLC system equipped with a photodiode array detector (PDA) and evaporative light scattering (ELS) detector; Empower™ data acquisition software version 3.0 was used (Waters™, USA). Separations were performed using a Waters Acquity™ BEH C18 column (1.7 μm, 2.1×100 mm) at a flow rate of 0.5 ml/min, with mobile phases A and B consisting of methanol/10 mM ammonium bicarbonate (80/20% v/v) and methanol/acetonitrile (80/20% v/v), respectively. The mobile phases were delivered at a programmed linear gradient (45%-80% B in 1 min then to 99% B at 2 min) at a column temperature of 55° C. The analyte was measured by PDA (at a wavelength of 239 nm) and ELS detector against calibration standard curves. For the analysis of LD-DEX/DTX breakdown to active compound, linear gradients of 20/80% to 100/0% (acetonitrile/water, v/v) over 7 min were used.
To determine the biodegradability of the dexamethasone or docetaxel prodrugs (LD-DEX/DTX), 1 mg/mL LNP was incubated in mouse plasma (Cedarlane™, Burlington, Ontario) or PBS supplemented with 10 U of purified esterase (Sigma-Aldrich™, St. […] Post incubation, four volumes of chloroform/methanol (2:1) was added and the mixture was vortex mixed. Samples were centrifuged at 13,000 g for 5 minutes and the upper phase was discarded. The remaining organic phase was dried down under vacuum and the resulting lipid extract was dissolved in methanol/acetonitrile (1:1). Quantity of parent LD-DEX/DTX compound was determined by ultra high pressure liquid chromatography on a Waters Acquity™ H-Class UPLC System™ equipped with a BEH C18 column and a photodiode array detector.

[3] = Prodrug incorporation (entrapment) in lipid nanoparticles, UHPLC; assay type: physicochemical; details: for % Entrapment PC-Chol LNP: LD-DTX prodrug in PC-Chol LNP; for % Entrapment [ionizable LNP]: LD-DTX prodrug in ionizable LNP
Method: (§2) Preparation of LNP Systems: PC-Chol LNP systems were prepared by rapidly mixing POPC, cholesterol, lipid-linked prodrug and PEG-DMPE (in molar ratio of 49/39/10/2) dissolved in ethanol with phosphate-buffered saline using a T-junction mixer. Formulations were dialyzed against phosphate-buffered saline to remove residual ethanol and to raise the pH to 7.4. PC-TO and ionizable LNP systems were prepared in the same way except that the lipid compositions for these systems are: POPC, triolein, lipid-linked prodrug and PEG-DSPE (in molar ration of 19/70/10/1), and ionizable lipid, DSPC, cholesterol, lipid-linked prodrug and PEG-DMPE (in molar ration of 40/10/38.5/10/1.5), respectively.
as §1

[4] = Particle size and polydispersity of LNP containing prodrug (dynamic light scattering); assay type: physicochemical; details: PDI in brackets; for Particle size (PDI) PC-Chol LNP: LD-DTX prodrug in PC-Chol LNP; for Particle size (PDI) [ionizable LNP]: LD-DTX prodrug in ionizable LNP
Method: as §2
Characterization of LNP: Particle size was determined by dynamic light scattering using a Malvern Zetasizer Nano ZS™ (Malvern, UK) following buffer exchange into phosphate-buffered saline. Number-weighted size and distribution data was used. Lipid concentrations were determined by measuring total cholesterol using the Cholesterol E enzymatic assay kit from Wako Chemicals USA™ (Richmond, Va.). The morphology of LNP formulations containing LD-DEX was analyzed by cryogenic-transmission electron microscopy (cryoTEM) as described previously [Leung et al. (2012)].

SMILES | suppression of cancer cell proliferation / IC50 comparison (in words) ([1]; OVCAR3, 0 to 15 μM of docetaxel, 48 h) | prodrug cleavage/degradation after 1 h in plasma [2] | IC50 ([1]; Free drugs) [nM] | IC50 ([1]; PC-Chol LNP) [nM] | IC50 ([1]; PC-TO LNP) [nM] | IC50 ([1]; ionizable LNP) [nM] | % Entrapment PC-Chol LNP [3] [%] | % Entrapment [ionizable LNP] [3] | Particle size (PDI) PC-Chol LNP [4] | Particle size (PDI) [ionizable LNP] [4]
CC(=O)O[C@@]12CO[C@@H]1C[C@H](O)[C@@]1(C)C(=O)[C@H](O)C3=C(C)[C@@H](OC(=O)[C@H](O)[C@@H](NC(=O)OC(C)(C)C)c4ccccc4)C[C@@](O)([C@@H](OC(=O)c4ccccc4)[C@H]21)C3(C)C [Docetaxel, reference compound] | much lower than all the other test articles | – | – | – | – | – | – | – | – | –
CCCCC/C=C\C/C=C\CCCCCCCC(=O)OCC(COC(=O)CCC(=O)O[C@@H](C(=O)O[C@H]1C[C@@]2(O)[C@@H](OC(=O)c3ccccc3)[C@@H]3[C@]4(OC(C)=O)CO[C@@H]4C[C@H](O)[C@@]3(C)C(=O)[C@H](O)C(=C1C)C2(C)C)[C@@H](NC(=O)OC(C)(C)C)c1ccccc1)OC(=O)CCCCCCC/C=C\C/C=C\CCCCC (stereo partly drawn) [LD10-DTX, (2R,3S)-1-(((2aR,4S,4aS,6R,9S,11S,12S,12aR,12bS)-12b-acetoxy-12-(benzoyloxy)-4,6,11-trihydroxy-4a,8,13,13-tetramethyl-5-oxo-2a,3,4,4a,5,6,9,10,11,12,12a,12b-dodecahydro-1H-7,11-methanocyclodeca[3,4]benzo[1,2-b]oxet-9-yl)oxy)-3-((tert-butoxycarbonyl)amino)-1-oxo-3-phenylpropan-2-yl (2,3-bis((9Z,12Z)-octadeca-9,12-dienoyloxy)propyl) succinate] | – | largely not degraded | 156 | 374 | 791 | 133 | 95 | [100] % | 58 (0.06) nm | [42 (0.06)] nm
CCCCCCCC/C=C\CCCCCCCC(=O)OCC(COC(=O)CCC(=O)O[C@@H](C(=O)O[C@H]1C[C@@]2(O)[C@@H](OC(=O)c3ccccc3)[C@@H]3[C@]4(OC(C)=O)CO[C@@H]4C[C@H](O)[C@@]3(C)C(=O)[C@H](O)C(=C1C)C2(C)C)[C@@H](NC(=O)OC(C)(C)C)c1ccccc1)OC(=O)CCCCCCC/C=C\CCCCCCCC (stereo partly drawn) [LD23-DTX, (2R,3S)-1-(((2aR,4S,4aS,6R,9S,11S,12S,12aR,12bS)-12b-acetoxy-12-(benzoyloxy)-4,6,11-trihydroxy-4a,8,13,13-tetramethyl-5-oxo-2a,3,4,4a,5,6,9,10,11,12,12a,12b-dodecahydro-1H-7,11-methanocydodeca[3,4]benzo[1,2-b]oxet-9-yl)oxy)-3-((tert-butoxycarbonyl)amino)-1-oxo-3-phenylpropan-2-yl (2,3-bis(oleoyloxy)propyl) succinate] | – | largely not degraded | 64.5 | ~15600 | 692 | 99.9 | 100 | [100] % | 60 (0.05) nm | [39 (0.06)] nm
